Results: patent US11999699B2, “Substituted pyrazole amides” (GRUENENTHAL GMBH, priority 2021, dated 2024)

Biological target: T1, human NaV1.8 (Homo sapiens, UniProt Q9Y5Y9)
T1 construct: The following NaV1.8 recombinant cell line was used for recordings: HEK-NaV1.8 (NM 006514.1); expressed in transfected cells; host or cells: HEK (recombinant cell line HEK-NaV1.8)
Assay: Electrophysiology: automated whole-cell voltage-clamp (patch clamp, Qube384) recordings of sodium currents in HEK-NaV1.8 cells
Assay type: cell-based
Conditions: potency data either taken from inactivated or resting state, read-out: Potency category (human NaV1.8 IC50)
Description: Electrophysiology: Voltage-Clamp Recordings
The following NaV1.8 recombinant cell line was used for recordings: HEK-NaV1.8 (NM 006514.1) with in (NM 018400.3).
Sodium currents were measured using the patch clamp technique in the whole-cell configuration using the Qube384 (Sophion A/S, Copenhagen, Denmark) automated voltage clamp platform. “Multi hole” plates were used for the cell line expressing NaV1.8 while “single hole” plates were used for the recombinant cell lines expressing the other subtypes. Appropriate filters (for minimum seal resistance and minimum current size) and series resistance compensation (for high quality sodium channel recordings) were applied. Data was collected at ambient room temperature.
The recording extracellular solution contained (in mM): NaCl 145 mM, KCl 4 mM, CaCl2 2 mM, MgCl2 1 mM, HEPES 10 mM, Glucose 10 mM, pH 7.4 (NaOH). The intracellular recording solution contained (in mM): CsF 120 mM, CsCl 20 mM, NaCl 10 mM, EGTA 10 mM, HEPES 10 mM, pH 7.2 (CsOH). Currents were recorded at 25 kHz sampling frequency and filtered at 5 kHz. Series resistance compensation was applied at 65%.
Vehicle (VEH) is the control condition where cells are exposed to 0.3% DMSO without compound. All runs include VEH controls being exposed to the same voltage protocols to assess non-compound related phenomena such as run down and then used to isolate compound dependent effects on currents.
To check for state-dependence inhibition, the following voltage-sequence was applied every 20 seconds:
From a resting membrane potential of −120 mV, the first test pulse (P1; 20 ms to −10 mV) was applied to check for channels in the Resting State followed by a brief recovery (20 ms to −120 mV), then holding the membrane voltage to V112 (4 seconds at voltage to obtain half the channel at Rest and half Inactivated) with a subsequent second test pulse (P2; 20 ms to −10 mV) to check for channels in the Inactivated State, followed by another brief recovery (20 ms to −120 mV) and a final third test pulse (P3; 20 ms to −10 mV) to check for recovered channels.
To check for frequency-dependent inhibition, a 10 Hz protocol and a 20 Hz protocol were applied; namely,
From a resting membrane potential of −120 mV, 40-pulses (10 ms to −10 mV) was applied at 10 Hz (at 100 ms between pulses) and then at 20 Hz (at 50 ms between pulses).
Each parameter was recorded (P1, P2, P3, P40 from 10 Hz and P40 from 20 Hz) during a control period (lasting 5 minutes) when establishing the baseline and during compound period (lasting ˜12 minutes) when test compound (or vehicle) was applied. For each parameter, the value at the end of the compound period was normalized to the vehicle baseline; as follows
To adjust for any variance in the Na^+ current signal during the compound period (owing to cumulative inactivation independent of compound or shifts in biophysics over time), a dedicated segment of the recording wells in each 384 plate were dedicated to having only vehicle exposure. These vehicle-only recordings were used to correct for any apparent “run-up” or “run-down” in the experiment.
The adjusted inhibition was calculated as follows: […]
Percent inhibition was determined and IC50 values were calculated using a 4 parameter logistic model within XLFit Software (IDBS, Boston MA):
[formula] where A and B are the maximal and minimum inhibition respectively, C is the IC50 concentration and D is the (Hill) slope.
The potency data was either taken from inactivated or resting state.

T1 sequence (Q9Y5Y9 whole entry): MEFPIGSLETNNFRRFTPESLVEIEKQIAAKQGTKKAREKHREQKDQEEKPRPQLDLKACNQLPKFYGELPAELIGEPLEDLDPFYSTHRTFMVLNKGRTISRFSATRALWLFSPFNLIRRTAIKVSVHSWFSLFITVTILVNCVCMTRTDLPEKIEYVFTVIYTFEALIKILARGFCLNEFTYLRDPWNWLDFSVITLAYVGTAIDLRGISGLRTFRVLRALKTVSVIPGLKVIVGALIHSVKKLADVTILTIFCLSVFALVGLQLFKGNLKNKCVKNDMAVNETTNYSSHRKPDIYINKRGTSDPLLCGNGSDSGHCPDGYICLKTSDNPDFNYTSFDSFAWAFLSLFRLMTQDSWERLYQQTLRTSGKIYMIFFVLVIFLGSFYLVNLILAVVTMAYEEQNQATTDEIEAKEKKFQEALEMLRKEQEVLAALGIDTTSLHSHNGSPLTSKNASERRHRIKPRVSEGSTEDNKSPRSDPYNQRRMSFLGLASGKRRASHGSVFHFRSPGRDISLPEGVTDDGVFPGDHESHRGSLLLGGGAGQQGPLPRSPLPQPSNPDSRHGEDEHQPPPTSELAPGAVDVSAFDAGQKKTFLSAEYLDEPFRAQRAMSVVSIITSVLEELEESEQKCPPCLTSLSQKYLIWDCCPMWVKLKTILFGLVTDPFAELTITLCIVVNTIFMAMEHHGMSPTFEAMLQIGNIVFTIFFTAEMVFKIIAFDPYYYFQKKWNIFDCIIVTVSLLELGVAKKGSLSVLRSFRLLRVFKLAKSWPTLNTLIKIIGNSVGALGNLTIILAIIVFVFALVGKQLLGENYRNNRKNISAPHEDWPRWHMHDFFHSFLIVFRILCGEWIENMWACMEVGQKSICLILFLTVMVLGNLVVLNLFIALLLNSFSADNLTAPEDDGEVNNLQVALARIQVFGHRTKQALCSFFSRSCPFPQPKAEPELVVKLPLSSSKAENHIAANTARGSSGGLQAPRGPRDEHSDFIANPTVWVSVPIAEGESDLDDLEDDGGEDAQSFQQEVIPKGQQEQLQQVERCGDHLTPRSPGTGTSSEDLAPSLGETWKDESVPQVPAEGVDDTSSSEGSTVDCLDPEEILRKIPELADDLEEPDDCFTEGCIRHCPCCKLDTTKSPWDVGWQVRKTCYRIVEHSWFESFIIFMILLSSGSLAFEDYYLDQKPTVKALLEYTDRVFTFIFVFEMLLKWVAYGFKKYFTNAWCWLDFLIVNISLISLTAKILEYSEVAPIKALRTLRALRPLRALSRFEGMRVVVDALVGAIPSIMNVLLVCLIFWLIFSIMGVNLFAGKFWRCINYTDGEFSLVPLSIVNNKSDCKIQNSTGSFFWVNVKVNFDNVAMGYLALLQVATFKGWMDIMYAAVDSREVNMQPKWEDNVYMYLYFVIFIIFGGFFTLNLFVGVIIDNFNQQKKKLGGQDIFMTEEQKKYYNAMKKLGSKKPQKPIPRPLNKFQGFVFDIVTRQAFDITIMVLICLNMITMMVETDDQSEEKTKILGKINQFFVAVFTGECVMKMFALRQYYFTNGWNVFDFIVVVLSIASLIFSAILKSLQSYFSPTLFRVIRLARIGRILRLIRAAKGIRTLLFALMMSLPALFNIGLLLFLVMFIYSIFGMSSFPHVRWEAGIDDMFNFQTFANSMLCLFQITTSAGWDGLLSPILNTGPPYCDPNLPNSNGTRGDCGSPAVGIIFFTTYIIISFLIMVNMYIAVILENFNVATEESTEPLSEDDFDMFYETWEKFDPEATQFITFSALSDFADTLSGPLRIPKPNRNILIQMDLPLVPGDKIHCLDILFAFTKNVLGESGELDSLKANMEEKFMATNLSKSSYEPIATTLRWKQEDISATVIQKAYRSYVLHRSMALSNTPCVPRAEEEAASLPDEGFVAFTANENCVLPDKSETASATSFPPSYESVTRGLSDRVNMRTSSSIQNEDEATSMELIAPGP
T1 sequence (Q9NY72 23-215 partner): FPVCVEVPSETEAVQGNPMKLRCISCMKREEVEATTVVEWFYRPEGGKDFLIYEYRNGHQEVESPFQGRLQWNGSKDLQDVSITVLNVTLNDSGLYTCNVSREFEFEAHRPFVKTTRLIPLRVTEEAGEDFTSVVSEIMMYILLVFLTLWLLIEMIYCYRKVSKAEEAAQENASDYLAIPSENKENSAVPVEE

NC(=O)c1cc(NC(=O)c2c(C(F)(F)F)c(C3CC3)nn2C[C@@H]2CCO[C@H]2C(F)(F)F)ccn1 (racemic) [SC-147c]
IC50: ≤ 0.1 µM

CS(=O)(=O)c1cc(NC(=O)c2c(C(F)(F)F)c(C3CC3)nn2C[C@@H]2CCO[C@H]2C(F)(F)F)ccn1 (racemic) [SC-150c]
IC50: ≤ 0.1 µM

NC(=O)c1cc(NC(=O)c2c(C(F)(F)F)c(OCC3CC3)nn2CC2CCC(F)(F)C2)ccn1 (racemic) [SC-157, 4-(3-(cyclopropylmethoxy)-1-((3,3-difluorocyclopentyl)methyl)-4-(trifluoromethyl)-1H-pyrazole-5-ca±oxamido)picolinamide]
IC50: ≤ 0.1 µM

Cc1c(C(C)(F)F)nn(CC2CC(F)(F)CC2C(F)(F)F)c1C(=O)Nc1ccnc(C(N)=O)c1 (racemic) [SC-217, 4-(1-((4,4-difluoro-2-(trifluoromethyl)cyclopentyl)methyl)-3-(1,1-difluoroethyl)-4-methyl-1H-pyrazole-5-carboxamido)picolinamide]
IC50: ≤ 0.1 µM

CS(=O)(=O)c1cc(NC(=O)c2c(C(F)(F)F)c(OC(F)F)nn2CC2CCC(F)(F)C2)ccn1 (racemic) [SC-293, 1-((3,3-difluorocyclopentyl)methyl)-3-(difluoromethoxy)-N-(2-(methylsulfonyl)pyridin-4-yl)-4-(trifluoromethyl)-1H-pyrazole-5-carboxamide]
IC50: ≤ 0.1 µM

Cc1c(C(C)(F)F)nn(C[C@@H]2C[C@@H]2C(F)F)c1C(=O)Nc1ccnc(C(N)=O)c1 (relative stereo) [SC-206, 4-(3-(1,1-difluoroethyl)-1-((2-(difluoromethyl)cyclopropyl)methyl)-4-methyl-lH-pyrazole-5-carboxamido)picolinamide]
IC50: 0.1 to 1 µM

COCCOC[C@@H]1CCCC[C@@H]1Cn1nc(C(C)(F)F)c(C)c1C(=O)Nc1ccnc(C(N)=O)c1 (relative stereo) [SC-223, 4-(3-(1,1-difluoroethyl)-1-((2-((2-methoxyethoxy)methyl)cyclohexyl)methyl)-4-methyl-1H-pyrazole-5-ca±oxamido)picolinamide]
IC50: ≤ 0.1 µM

Cc1c(C(F)(F)F)nn(CC2CCC(F)(F)C2)c1C(=O)Nc1ccnc(C(N)=O)c1 (single isomer, unassigned) [SC-118a]
IC50: ≤ 0.1 µM

Cc1c(C(F)(F)F)nn(CC2CCC(F)(F)C2)c1C(=O)Nc1ccnc(C(N)=O)c1 (single isomer, unassigned) [SC-118b]
IC50: ≤ 0.1 µM

NC(=O)c1cc(NC(=O)c2c(C(F)(F)F)c(C3CC3)nn2CC2CCC(F)(F)C2)ccn1 (single isomer, unassigned) [SC-129a]
IC50: ≤ 0.1 µM

NC(=O)c1cc(NC(=O)c2c(C(F)(F)F)c(C3CC3)nn2CC2CCC(F)(F)C2)ccn1 (single isomer, unassigned) [SC-129b]
IC50: ≤ 0.1 µM

NC(=O)c1cc(NC(=O)c2c(C(F)(F)F)c(C3CC3)nn2CC2CCCOC2)ccn1 (single isomer, unassigned) [SC-145a, 4-(3-Cyclopropyl-1-((tetrahydro-2H-pyran-3-yl)methyl)-4-(trifluoromethyl)-1H-pyrazole-5-carboxamido)picolinamide]
IC50: ≤ 0.1 µM

NC(=O)c1cc(NC(=O)c2c(C(F)(F)F)c(C3CC3)nn2CC2CCCOC2)ccn1 (single isomer, unassigned) [SC-145b, 4-(3-Cyclopropyl-1-((tetrahydro-2H-pyran-3-yl)methyl)-4-(trifluoromethyl)-1H-pyrazole-5-carboxamido)picolinamide]
IC50: ≤ 0.1 µM

NC(=O)c1cc(NC(=O)c2c(C(F)(F)F)c(C3CC3)nn2C[C@@H]2CCO[C@@H]2C(F)(F)F)ccn1 (single isomer, unassigned) [SC-147a]
IC50: ≤ 0.1 µM

NC(=O)c1cc(NC(=O)c2c(C(F)(F)F)c(C3CC3)nn2C[C@@H]2CCO[C@@H]2C(F)(F)F)ccn1 (single isomer, unassigned) [SC-147b]
IC50: ≤ 0.1 µM

NC(=O)c1cc(NC(=O)c2c(C(F)(F)F)c(C3CC3)nn2C[C@@H]2CO[C@H](C(F)(F)F)C2)ccn1 (single isomer, unassigned) [SC-148a]
IC50: ≤ 0.1 µM

NC(=O)c1cc(NC(=O)c2c(C(F)(F)F)c(C3CC3)nn2C[C@@H]2CO[C@H](C(F)(F)F)C2)ccn1 (single isomer, unassigned) [SC-148b]
IC50: ≤ 0.1 µM

CC(F)(F)c1nn(CC2CCC(F)(F)C2)c(C(=O)Nc2ccnc(C(N)=O)c2)c1Cl (single isomer, unassigned) [SC-149a]
IC50: ≤ 0.1 µM

CC(F)(F)c1nn(CC2CCC(F)(F)C2)c(C(=O)Nc2ccnc(C(N)=O)c2)c1Cl (single isomer, unassigned) [SC-149b]
IC50: ≤ 0.1 µM

CS(=O)(=O)c1cc(NC(=O)c2c(C(F)(F)F)c(C3CC3)nn2C[C@@H]2CCO[C@@H]2C(F)(F)F)ccn1 (single isomer, unassigned) [SC-150a]
IC50: ≤ 0.1 µM

CS(=O)(=O)c1cc(NC(=O)c2c(C(F)(F)F)c(C3CC3)nn2C[C@@H]2CCO[C@@H]2C(F)(F)F)ccn1 (single isomer, unassigned) [SC-150b]
IC50: ≤ 0.1 µM

NC(=O)c1cc(NC(=O)c2c(C(F)(F)F)c(C3CC3)nn2CC2CCC2(F)F)ccn1 (single isomer, unassigned) [SC-154a, 4-(3-cyclopropyl-1-((2,2-difluorocyclobutyl)methyl)-4-(trifluoromethyl)-1H-pyrazole-5-carboxamido)picolinamide]
IC50: ≤ 0.1 µM

NC(=O)c1cc(NC(=O)c2c(C(F)(F)F)c(C3CC3)nn2CC2CCC2(F)F)ccn1 (single isomer, unassigned) [SC-154b, 4-(3-cyclopropyl-1-((2,2-difluorocyclobutyl)methyl)-4-(trifluoromethyl)-1H-pyrazole-5-carboxamido)picolinamide]
IC50: ≤ 0.1 µM

NC(=O)c1cc(NC(=O)c2c(Cl)c(C(F)(F)F)nn2CC2CCC(F)(F)C2)ccn1 (single isomer, unassigned) [SC-160a]
IC50: ≤ 0.1 µM

NC(=O)c1cc(NC(=O)c2c(Cl)c(C(F)(F)F)nn2CC2CCC(F)(F)C2)ccn1 (single isomer, unassigned) [SC-160b]
IC50: ≤ 0.1 µM

Cc1c(C(C)(F)F)nn(CC2C[C@H]2C(F)(F)F)c1C(=O)Nc1ccnc(C(N)=O)c1 (single isomer, unassigned) [SC-204a]
IC50: ≤ 0.1 µM

Cc1c(C(C)(F)F)nn(C[C@H]2C[C@@H]2C(F)(F)F)c1C(=O)Nc1ccnc(C(N)=O)c1 (single isomer, unassigned) [SC-204b]
IC50: ≤ 0.1 µM

Cc1c(C(C)(F)F)nn(CC2(C)CCC(F)(F)C2)c1C(=O)Nc1ccnc(S(N)(=O)=O)c1 (single isomer, unassigned) [SC-212a]
IC50: ≤ 0.1 µM

Cc1c(C(C)(F)F)nn(C[C@@]2(C)CCC(F)(F)C2)c1C(=O)Nc1ccnc(S(N)(=O)=O)c1 (single isomer, unassigned) [SC-212b]
IC50: ≤ 0.1 µM

Cc1c(C(C)(F)F)nn(CC2(C)CCC(F)(F)C2)c1C(=O)Nc1ccnc(C(N)=O)c1 (single isomer, unassigned) [SC-214a]
IC50: ≤ 0.1 µM

Cc1c(C(C)(F)F)nn(CC2(C)CCC(F)(F)C2)c1C(=O)Nc1ccnc(C(N)=O)c1 (single isomer, unassigned) [SC-214b]
IC50: ≤ 0.1 µM

NC(=O)c1cc(NC(=O)c2c(C(F)(F)F)c(C3CC3)nn2CC2CC(OC(F)(F)F)C2)ccn1 (single isomer, unassigned) [SC-219a]
IC50: ≤ 0.1 µM

NC(=O)c1cc(NC(=O)c2c(C(F)(F)F)c(C3CC3)nn2CC2CC(OC(F)(F)F)C2)ccn1 (single isomer, unassigned) [SC-219b]
IC50: ≤ 0.1 µM
